From US9688699B2, “3-(pyrimidine-2-yl)imidazo[1,2-a]pyridines” (Bayer Pharma Aktiengesellschaft, priority 2014, dated 2017)
Counter-ions that a name gives are not always drawn.

What was measured:
[1] = biological target: T1, human phosphodiesterase 5 (PDE 5) (Homo sapiens, UniProt O76074); test: Inhibition of human phosphodiesterase 5 (PDE 5) (B-3); type: biochemical; conditions: PDE 5 preparation from human platelets; [8-3H] cGMP substrate, SPA; in some cases means of individual determinations
T1 construct: PDE 5 preparations are obtained from human platelets by disruption; from tissue; host or cells: human platelets (Mono Q ion exchange fractions with PDE 5 activity)
In short: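 Enzyme partially purified from human platelets by Mono Q ion exchange; [8-3H]cGMP substrate (0.025 μCi), Tris-HCl pH 7.5 with MgCl2/EDTA, <70% conversion, 60 min at room temperature. Compounds tested at 4 to 0.0018 μM final; yttrium SPA bead read-out, IC50 from concentration–% inhibition plot.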

[2] = biological target: T2, recombinant guanylate cyclase reporter cell line (Rattus norvegicus, UniProt P19686+P20595); test: Effect on a recombinant guanylate cyclase reporter cell line (B-2); type: cell-based; conditions: MEC = minimum effective concentration, in some cases mean values for individual determinations
T2 construct: expressed in transfected cells
T2 sequence (P19686 1-690): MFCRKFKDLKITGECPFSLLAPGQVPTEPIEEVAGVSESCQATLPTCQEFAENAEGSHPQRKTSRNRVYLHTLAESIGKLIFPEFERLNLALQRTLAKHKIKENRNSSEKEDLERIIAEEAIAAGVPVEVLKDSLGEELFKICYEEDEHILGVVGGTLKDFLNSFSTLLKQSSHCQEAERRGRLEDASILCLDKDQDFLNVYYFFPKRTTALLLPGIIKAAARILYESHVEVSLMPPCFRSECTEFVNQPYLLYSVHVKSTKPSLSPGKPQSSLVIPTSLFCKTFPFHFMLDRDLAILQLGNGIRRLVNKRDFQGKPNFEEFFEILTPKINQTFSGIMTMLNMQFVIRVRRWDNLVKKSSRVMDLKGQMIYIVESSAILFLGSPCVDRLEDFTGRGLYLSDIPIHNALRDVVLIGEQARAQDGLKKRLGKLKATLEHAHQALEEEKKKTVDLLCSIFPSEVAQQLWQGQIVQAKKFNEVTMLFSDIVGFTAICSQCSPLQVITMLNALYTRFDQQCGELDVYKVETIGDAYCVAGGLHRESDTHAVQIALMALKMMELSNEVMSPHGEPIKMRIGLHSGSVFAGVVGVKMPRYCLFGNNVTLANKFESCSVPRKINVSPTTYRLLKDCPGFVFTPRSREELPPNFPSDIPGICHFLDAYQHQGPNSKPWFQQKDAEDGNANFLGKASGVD
T2 sequence (P20595 1-619): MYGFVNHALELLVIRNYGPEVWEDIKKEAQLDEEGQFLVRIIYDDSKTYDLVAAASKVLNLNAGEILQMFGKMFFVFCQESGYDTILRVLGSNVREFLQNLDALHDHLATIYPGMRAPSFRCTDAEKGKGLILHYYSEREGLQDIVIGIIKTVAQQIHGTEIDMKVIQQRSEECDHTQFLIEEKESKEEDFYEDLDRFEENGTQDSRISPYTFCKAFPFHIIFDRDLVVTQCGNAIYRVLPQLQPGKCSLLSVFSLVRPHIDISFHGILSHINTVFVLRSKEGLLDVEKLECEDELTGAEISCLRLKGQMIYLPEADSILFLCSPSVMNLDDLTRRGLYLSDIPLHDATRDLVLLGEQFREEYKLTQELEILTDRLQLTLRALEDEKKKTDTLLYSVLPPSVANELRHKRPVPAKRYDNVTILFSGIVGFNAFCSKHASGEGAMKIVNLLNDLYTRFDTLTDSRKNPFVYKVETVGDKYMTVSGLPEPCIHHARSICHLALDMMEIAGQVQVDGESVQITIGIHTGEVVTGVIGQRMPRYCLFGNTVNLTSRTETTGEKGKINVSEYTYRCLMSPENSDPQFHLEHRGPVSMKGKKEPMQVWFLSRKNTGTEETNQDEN
In short: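 Cellular guanylate cyclase activity measured in a recombinant reporter cell line expressing rat soluble guanylate cyclase subunits. Values are minimum effective concentrations (MEC), some as means of individual determinations.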

IC50 [1] [nM]	MEC [2] [µM]	SMILES
4.6	0.3	Cc1nc2c(OCc3c(F)cccc3F)cccn2c1-c1nc(NCC2(O)CC2)c2c(n1)NC(=O)C2(C)C [Example 17, 2-{8-[(2,6-difluorobenzyl)oxy]-2-methylimidazo[1,2-a]pyridin-3-yl}-4-{[(1-hydroxycyclopropyl)methyl]amino}-5,5-dimethyl-5,7-dihydro-6H-pyrrolo[2,3-d]pyrimidin-6-one]
7.1	1	Cc1nc2c(OCc3c(F)cccc3F)cccn2c1-c1nc(NCCC(F)(F)F)c2c(n1)NC(=O)C2(C)C [Example 19, 2-{8-[(2,6-difluorobenzyl)oxy]-2-methylimidazo[1,2-a]pyridin-3-yl}-5,5-dimethyl-4-[(3,3,3-trifluoropropyl)amino]-5,7-dihydro-6H-pyrrolo[2,3-d]pyrimidin-6-one]
3.9	3	Cc1nc2c(OCc3c(F)cccc3F)cccn2c1-c1nc(NC[C@H](O)CO)c2c(n1)NC(=O)C2(C)C [Example 22, 2-{8-[(2,6-difluorobenzyl)oxy]-2-methylimidazo[1,2-a]pyridin-3-yl}-4-{[(2S)-2,3-dihydroxypropyl]amino}-5,5-dimethyl-5,7-dihydro-6H-pyrrolo[2,3-d]pyrimidin-6-one]
8	3	Cc1nc2c(OCc3c(F)cccc3F)cccn2c1-c1nc(NC[C@@H](O)CO)c2c(n1)NC(=O)C2(C)C [Example 23, 2-{8-[(2,6-difluorobenzyl)oxy]-2-methylimidazo[1,2-a]pyridin-3-yl}-4-{[(2R)-2,3-dihydroxypropyl]amino}-5,5-dimethyl-5,7-dihydro-6H-pyrrolo[2,3-d]pyrimidin-6-one]
1.3	0.3	Cc1nc2c(OCc3c(F)cccc3F)cccn2c1-c1nc(NCCO)c2c(n1)NC(=O)C2(C)C [Example 24, 2-{8-[(2,6-difluorobenzyl)oxy]-2-methylimidazo[1,2-a]pyridin-3-yl}-4-[(2-hydroxyethyl)amino]-5,5-dimethyl-5,7-dihydro-6H-pyrrolo[2,3-d]pyrimidin-6-one trifluoroacetate]
26	3	Cc1nc2c(OCc3c(F)cccc3F)cccn2c1-c1nc(NCCN2CCC(F)(F)C2)c2c(n1)NC(=O)C2(C)C [Example 26, 2-{8-[(2,6-difluorobenzyl)oxy]-2-methylimidazo[1,2-a]pyridin-3-yl}-4-{[2-(3,3-difluoropyrrolidin-1-yl)ethyl]amino)-5,5-dimethyl-5,7-dihydro-6H-pyrrolo[2,3-d]pyrimidin-6-one]
9.7	1	Cc1nc2c(OCc3c(F)cccc3F)cccn2c1-c1nc(NCC(N)(CF)CF)c2c(n1)NC(=O)C2(C)C [Example 33, 4-{[2-amino-3-fluoro-2-(fluoromethyl)propyl]amino}-2-{8-[(2,6-difluorobenzyl)oxy]-2-methylimidazo[1,2-a]pyridin-3-yl}-5,5-dimethyl-5,7-dihydro-6H-pyrrolo[2,3-d]pyrimidin-6-one]
5.3	1	Cc1nc2c(OCc3c(F)ccc(F)c3F)cccn2c1-c1nc(NCC(C)(C)O)c2c(n1)NC(=O)C2(C)C [Example 34, 4-[(2-hydroxy-2-methylpropyl)amino]-5,5-dimethyl-2-{2-methyl-8-[(2,3,6-trifluorobenzyl)oxy]imidazo[1,2-a]pyridin-3-yl}-5,7-dihydro-6H-pyrrolo[2,3-d]pyrimidin-6-one]
20	0.3	Cc1nc2c(OCc3c(F)cccc3F)cccn2c1-c1nc2c(c(N3CCC[C@H]3CO)n1)C(C)(C)C(=O)N2 [Example 36, 2-{8-[(2,6-difluorobenzyl)oxy]-2-methylimidazo[1,2-a]pyridin-3-yl}-4-[(2S)-2-(hydroxymethyl)pyrrolidin-1-yl]-5,5-dimethyl-5,7-dihydro-6H-pyrrolo[2,3-d]pyrimidin-6-one]
21	1	Cc1nc2c(OCc3c(F)cccc3F)cccn2c1-c1nc2c(c(N3CCC[C@@H]3CO)n1)C(C)(C)C(=O)N2 [Example 37, 2-{8-[(2,6-difluorobenzyl)oxy]-2-methylimidazo[1,2-a]pyridin-3-yl}-4-[(2R)-2-(hydroxymethyl)pyrrolidin-1-yl]-5,5-dimethyl-5,7-dihydro-6H-pyrrolo[2,3-d]pyrimidin-6-one]
36	3	Cc1nc2c(OCc3c(F)ccc(F)c3F)cccn2c1-c1nc2c(c(N3CCC(CC(=O)O)CC3)n1)C(C)(C)C(=O)N2 [Example 38, [1-(5,5-dimethyl-2-{2-methyl-8-[(2,3,6-trifluorobenzyl)oxy]imidazo[1,2-a]pyridin-3-yl}-6-oxo-6,7-dihydro-5H-pyrrolo[2,3-d]pyrimidin-4-yl)piperidin-4-yl]acetic acid]
6	0.1	Cc1nc2c(OCc3c(F)cccc3F)cccn2c1-c1nc(NCC2(N)CC2)c2c(n1)NC(=O)C2(C)C [Example 42, 4-{[(1-Aminocyclopropyl)methyl]amino}-2-{8-[(2,6-difluorobenzyl)oxy]-2-methylimidazo[1,2-a]pyridin-3-yl}-5,5-dimethyl-5,7-dihydro-6H-pyrrolo[2,3-d]pyrimidin-6-one]
5.5	3	Cc1nc2c(OCc3c(F)cccc3F)cccn2c1-c1nc2c(c(-n3cc(O)cn3)n1)C(C)(C)C(=O)N2 [Example 43, 2-{8-[(2,6-Difluorobenzyl)oxy]-2-methylimidazo[1,2-a]pyridin-3-yl}-4-(4-hydroxy-1H-pyrazol-1-yl)-5,5-dimethyl-5,7-dihydro-6H-pyrrolo[2,3-d]pyrimidin-6-one]
1.5	1	Cc1nc2c(OCc3c(F)cccc3F)cccn2c1-c1nc2c(c(Oc3cn[nH]c3)n1)C(C)(C)C(=O)N2 [Example 44, 2-{8-[(2,6-Difluorobenzyl)oxy]-2-methylimidazo[1,2-a]pyridin-3-yl}-5,5-dimethyl-4-(1H-pyrazol-4-yloxy)-5,7-dihydro-6H-pyrrolo[2,3-d]pyrimidin-6-one]
190	1	Cc1nc2c(OCc3c(F)cccc3F)cccn2c1-c1nc(C#N)c2c(n1)NC(=O)C2(C)C [Example 48, 2-{8-[(2,6-Difluorobenzyl)oxy]-2-methylimidazo[1,2-a]pyridin-3-yl}-5,5-dimethyl-6-oxo-6,7-dihydro-5H-pyrrolo[2,3-d]pyrimidine-4-carbonitrile]
48	1	Cc1nc2c(OCc3c(F)cccc3F)cccn2c1-c1nc(CN)c2c(n1)NC(=O)C2(C)C [Example 49, 4-(Aminomethyl)-2-{8-[(2,6-difluorobenzyl)oxy]-2-methylimidazo[1,2-a]pyridin-3-yl}-5,5-dimethyl-5,7-dihydro-6H-pyrrolo[2,3-d]pyrimidin-6-one]
29	0.3	Cc1nc2c(OCc3c(F)cccc3F)cccn2c1-c1nc2c(c(C(N)=O)n1)C(C)(C)C(=O)N2 [Example 50, 2-{8-[(2,6-Difluorobenzyl)oxy]-2-methylimidazo[1,2-a]pyridin-3-yl}-5,5-dimethyl-6-oxo-6,7-dihydro-5H-pyrrolo[2,3-d]pyrimidine-4-carboxamide hydrochloride]
430	10	Cc1nc2c(OCc3c(F)cccc3F)cccn2c1-c1nc2c(c(C(=O)O)n1)C(C)(C)C(=O)N2 [Example 51, 2-{8-[(2,6-Difluorobenzyl)oxy]-2-methylimidazo[1,2-a]pyridin-3-yl}-5,5-dimethyl-6-oxo-6,7-dihydro-5H-pyrrolo[2,3-d]pyrimidine-4-carboxylic acid]
